According to EP4806900A2, “RAS INHIBITORS” (Revolution Medicines, Inc., priority 2019, dated 2021):
Several values for one entry are separate records, joined by “and”; a condition that tells them apart may be missing. Equal values may be shown once. Read-outs that look alike come from different tables or passages of the source.

Tested on: NCI-H358 (K-Ras G12C)
Experiment: CellTiter-Glo cell viability assay, NCI-H358
Format: cell-based, human
Method in brief: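 Compounds dispensed directly onto plated NCI-H358 cells; plates equilibrated to room temperature on day 5 before luminescence read-out. Signal normalized to mean DMSO control (%) and fitted by four-parameter logistic.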

[1] = Table 5, read-out: H358 Cell Viability assay data (K-Ras G12C, IC50)
[2] = Homo sapiens, NCI-H358, read-out: H358 Cell Viability assay data (K-Ras G12C, IC50, uM), Table 5
[3] = Homo sapiens, NCI-H358, Table 5, read-out: H358 Cell Viability assay data (K-Ras G12C, IC50)

IC50 [1]	Structure (SMILES)	IC50 [2]	also measured
0.01 to 0.1 µM	C=CC(=O)N1CC[C@H](C(=O)N(C)[C@H](C(=O)N[C@H]2Cc3nc(cs3)-c3ccc4c(c3)c(c(-c3cccnc3COC)n4CC)CC(C)(C)COC(=O)[C@@H]3CCCN(N3)C2=O)C(C)C)C1 [Compound A94]		
0.01 to 0.1 µM	CCn1c(-c2cccnc2COC)c2c3cc(ccc31)-c1cc(O)cc(c1)C[C@H](NC(=O)[C@H](C(C)C)N(C)C(=O)[C@H]1CCN(C(=O)C#CCN3CCOCC3)C1)C(=O)N1CCC[C@H](N1)C(=O)OCC(C)(C)C2 [Compound A95, (2S)-N-[(8S,14S)-22-ethyl-4-hydroxy-21-[2-(methoxymethyl)pyridin-3-yl]-18,18-dimethyl-9,15-dioxo-16-oxa-10,22,28-triazapentacyclo[18.5.2.1^2,^6.1^10,^14.0^23,^27]nonacosa-1(26),2,4,6(29),20,23(27),24-heptaen-8-yl]-3-methyl-2-{N-methyl-1-[(3S)-1-[4-(morpholin-4-yl)but-2-ynoyl]pyrrolidin-3-yl]formamido}butanamide]		
< 0.01 µM	CCn1c(-c2cccnc2COC)c2c3cc(ccc31)-c1cc(O)cc(c1)C[C@H](NC(=O)[C@H](C(C)C)N(C)C(=O)[C@H]1CCN(C(=O)C#CCN(C)C)C1)C(=O)N1CCC[C@H](N1)C(=O)OCC(C)(C)C2 [Compound A96]		
0.01 to 0.1 µM	CCn1c(-c2cccnc2COC)c2c3cc(ccc31)-c1cc(O)cc(c1)C[C@H](NC(=O)[C@H](C(C)C)N(C)C(=O)C1CN(C(=O)C#CCN(C)C)C1)C(=O)N1CCC[C@H](N1)C(=O)OCC(C)(C)C2 [Compound A97]		
0.01 to 0.1 µM	C=CC(=O)N1CC[C@H](C(=O)N(C)[C@H](C(=O)N[C@H]2Cc3cc(O)cc(c3)-c3ccc4c(c3)c(c(-c3ccc(C5CCN(C)CC5)nc3)n4CC)CC(C)(C)COC(=O)[C@@H]3CCCN(N3)C2=O)C(C)C)C1 [Compound A98]		
0.01 to 0.1 µM	C=CC(=O)N1CC[C@H](C(=O)N(C)[C@H](C(=O)N[C@H]2Cc3cc(O)cc(c3)-c3ccc4c(c3)c(c(-c3cnn(C)c3)n4CC)CC(C)(C)COC(=O)[C@@H]3CCCN(N3)C2=O)C(C)C)C1 [Compound A99]		
	C=CC(=O)N1CC[C@H](C(=O)N(C)[C@H](C(=O)N[C@H]2Cc3cc(O)cc(c3)-c3ccc4c(c3)c(c(-c3cnccc3[C@H](C)OC)n4CC)CC(C)(C)COC(=O)[C@@H]3CCCN(N3)C2=O)C(C)C)C1 [Compound A112]	< 0.01 µM	
0.1 to 1 µM	C=CC(=O)N1CC[C@H](C(=O)N(C)[C@H](C(=O)N[C@H]2Cc3cc(O)cc(c3)-c3ccc4c(c3)c(c(-c3cn(C)cn3)n4CC)CC(C)(C)COC(=O)[C@@H]3CCCN(N3)C2=O)C(C)C)C1 [Compound A113]		
	C=CC(=O)N1CC[C@H](C(=O)N(C)[C@H](C(=O)N[C@H]2Cc3cccc(c3)-c3ccc4c(c3)c(c(-c3cccnc3[C@H](C)OC)n4CC)CC(C)(C)COC(=O)[C@@H]3CCCN(N3)C2=O)C(C)C)C1 [Compound A114]		IC50 [3]: 0.1 to 1 µM
	CCn1c(-c2cnccc2COC)c2c3cc(ccc31)-c1ccnc(c1)C[C@H](NC(=O)[C@H](C(C)C)N(C)C(=O)[C@H]1CCN(C(=O)C#CCN(C)C)C1)C(=O)N1CCC[C@H](N1)C(=O)OCC(C)(C)C2 [Compound A130]	0.01 to 0.1 µM	
	C=CS(=O)(=O)N1CC[C@H](C(=O)N(C)[C@H](C(=O)N[C@H]2Cc3cc(O)cc(c3)-c3ccc4c(c3)c(c(-c3cccnc3[C@H](C)OC)n4CC)CC(C)(C)COC(=O)[C@@H]3CCCN(N3)C2=O)C(C)C)C1 [Compound A132]	< 0.01 µM	
	CCn1c(-c2cccnc2COC)c2c3cc(ccc31)-c1cc(O)cc(c1)C[C@H](NC(=O)[C@H](C(C)C)N(C)C(=O)[C@H]1CCN(C(=O)C#CCOC)C1)C(=O)N1CCC[C@H](N1)C(=O)OCC(C)(C)C2 [Compound A135]	< 0.01 µM	
< 0.01 µM and 0.01 to 0.1 µM	CC#CC(=O)N1CC[C@H](C(=O)N(C)[C@H](C(=O)N[C@H]2Cc3cc(O)cc(c3)-c3ccc4c(c3)c(c(-c3cccnc3[C@H](C)OC)n4CC)CC(C)(C)COC(=O)[C@@H]3CCCN(N3)C2=O)C(C)C)C1 [Compound A145, (2S)-2-{1-[(3S)-1-(but-2-ynoyl)pyrrolidin-3-yl]-N-methylformamido}-N-[(8S,14S,20M)-22-ethyl-4-hydroxy-21-{2-[(1S)-1-methoxyethyl]pyridin-3-yl}-18,18-dimethyl-9,15-dioxo-16-oxa-10,22,28-triazapentacyclo[18.5.2.1^2,^6.1^10,^14.0^23,^27]nonacosa-1(26),2,4,6(29),20,23(27),24-heptaen-8-yl]-3-methylbutanamide]		
	C=CC(=O)N1CC[C@H](C(=O)N(C)[C@H](C(=O)N[C@H]2Cc3cc(O)cc(c3)-c3ccc4c(c3)c(c(-c3cc(CN(C)C)cnc3COC)n4CC)CC(C)(C)COC(=O)[C@@H]3CCCN(N3)C2=O)C(C)C)C1 [Compound A149]	0.01 to 0.1 µM	
< 0.01 µM and 0.01 to 0.1 µM	CCn1c(-c2cncnc2C(C)C)c2c3cc(ccc31)-c1cc(O)cc(c1)C[C@H](NC(=O)[C@H](C(C)C)N(C)C(=O)[C@H]1CCN(C(=O)C#CCN(C)C)C1)C(=O)N1CCC[C@H](N1)C(=O)OCC(C)(C)C2 [Compound A155]		
	CCn1c(-c2cccnc2COC)c2c3cc(ccc31)-c1cc(C)cc(c1)C[C@H](NC(=O)[C@H](C(C)C)N(C)C(=O)[C@H]1CCN(C(=O)C#CCN(C)C)C1)C(=O)N1CCC[C@H](N1)C(=O)OCC(C)(C)C2 [Compound A157]	< 0.01 µM	

IC50 [1]	Structure (SMILES)	IC50 [2]	also measured
	C=CC(=O)N1CC[C@H](C(=O)N(C)[C@H](C(=O)N[C@H]2Cc3cc(O)cc(c3)-c3ccc4c(c3)c(c(-c3cccnc3)n4C3CC3)CC(C)(C)COC(=O)[C@@H]3CCCN(N3)C2=O)C(C)C)C1 [Compound A160]	0.1 to 1 µM	
	CCn1c(-c2cccnc2COC)c2c3cc(ccc31)-c1cc(O)cc(c1)C[C@H](NC(=O)[C@H](C(C)C)N(C)C(=O)[C@H]1CCN(C(=O)/C=C\CN(C)C)C1)C(=O)N1CCC[C@H](N1)C(=O)OCC(C)(C)C2 [Compound A161]	> 1 µM	
	C=CC(=O)N1CC[C@H](C(=O)N(C)[C@H](C(=O)N[C@H]2Cc3cc(O)cc(c3)-c3ccc4c(c3)c(c(-c3cnn(C)c3[C@H](C)OC)n4CC)CC(C)(C)COC(=O)[C@@H]3CCCN(N3)C2=O)C(C)C)C1 [Compound A166]		IC50 [3]: < 0.01 µM
	C=CC(=O)N1CC[C@H](C(=O)N(C)[C@H](C(=O)N[C@H]2Cc3cc(O)cc(c3)-c3ccc4c(c3)c(c(-c3cc(C)cnc3[C@H](C)OC)n4CC)CC(C)(C)COC(=O)[C@@H]3CCCN(N3)C2=O)C(C)C)C1 [Compound A167]	< 0.01 µM	
	CCn1c(-c2cccnc2[C@H](C)OC)c2c3cc(ccc31)-c1cc(O)cc(c1)C[C@H](NC(=O)[C@H](C(C)C)N(C)C(=O)[C@H]1CCN(C(=O)C#CCN3CCOCC3)C1)C(=O)N1CCC[C@H](N1)C(=O)OCC(C)(C)C2 [Compound A182]	< 0.01 µM	
	C=CC(=O)Nc1ccc(C(=O)N(C)[C@H](C(=O)N[C@H]2Cc3cc(O)cc(c3)-c3ccc4c(c3)c(c(-c3cccnc3[C@H](C)OC)n4CC)CC(C)(C)COC(=O)[C@@H]3CCCN(N3)C2=O)C(C)C)cn1 [Compound A250]	< 0.01 µM	
	C=CC(=O)Nc1ccc(C(=O)N(C)[C@H](C(=O)N[C@H]2Cc3cc(O)cc(c3)-c3ccc4c(c3)c(c(-c3cccnc3[C@H](C)OC)n4CC)CC(C)(C)COC(=O)[C@@H]3CCCN(N3)C2=O)C(C)C)cn1 [Compound A336]		IC50 (read-out: H358 Cell Viability assay data (K-Ras G12C, IC50), Table 5): < 0.01 µM
	C=CC(=O)N1CC[C@H](C(=O)N(C)[C@H](C(=O)N[C@H]2Cc3nc(cs3)-c3ccc4c(n3)c(c(-c3cccnc3[C@H](C)OC)n4CC)CC(C)(C)COC(=O)[C@@H]3CCCN(N3)C2=O)C(C)C)C1 [Compound A347, (2S)-N-[(7S,13S)-21-ethyl-20-{2-[(1S)-1-methoxyethyl]pyridin-3-yl}-17,17-dimethyl-8,14-dioxo-15-oxa-4-thia-9,21,25,27,28-pentaazapentacyclo[17.5.2.1^{2,5}.1^{9,13}.0^{22,26}]octacosa-1(25),2,5(28),19,22(26),23-hexaen-7-yl]-3-methyl-2-{N-methyl-1-[(3S)-1-(prop-2-enoyl)pyrrolidin-3-yl]formamido}butanamide]	0.1 to 1 µM	
	CCn1c(-c2cccnc2[C@H](C)OC)c2c3cc(ccc31)-c1csc(n1)C[C@H](NC(=O)[C@H](C(C)C)N(C)C(=O)N(C)C1CN(C(=O)/C=C/C(C)(C)O)C1)C(=O)N1CCC[C@H](N1)C(=O)OCC(C)(C)C2 [Compound A350]	0.1 to 1 µM	
	CCn1c(-c2cccnc2C(C)OC)c2c3cc(ccc31)-c1cccc(c1)CC(NC(=O)C(C(C)C)N1CCC3(CCN(C(=O)C#CC(C)(C)N4CCC4)C3)C1=O)C(=O)N1CCCC(N1)C(=O)OCC(C)(C)C2 (centres unmarked) [Compound A365]	< 0.01 µM	
	C=CC(=O)N1CC[C@H](C(=O)N(C)[C@H](C(=O)N[C@H]2C[C@H]3CN(CCO3)c3ccc4c(c3)c(c(-c3cccnc3[C@H](C)OC)n4CC)CC(C)(C)COC(=O)[C@@H]3CCCN(N3)C2=O)C(C)C)C1 [Compound A378]		IC50 [3]: 0.1 to 1 µM
	CCn1c(-c2cccnc2[C@H](C)OC)c2c3cc(ccc31)-c1csc(n1)C[C@H](NC(=O)[C@H](C(C)C)N(C)C(=O)N1CC(N(C)C(=O)C#CC(C)(C)N3CCC3)C1)C(=O)N1CCC[C@H](N1)C(=O)OCC(C)(C)C2 [Compound A379]	< 0.01 µM	
0.01 to 0.1 µM	C=CC(=O)N1CC2CCC1CN2C(=O)N(C)[C@H](C(=O)N[C@H]1Cc2nc(cs2)-c2ccc3c(c2)c(c(-c2cccnc2[C@H](C)OC)n3CC)CC(C)(C)COC(=O)[C@@H]2CCCN(N2)C1=O)C(C)C [Compound A420]		
	CO[C@@H](C)c1ncccc1-c1c2c3cc(ccc3n1CC(F)(F)F)-c1nnc(o1)C[C@H](NC(=O)[C@H](C(C)C)N(C)C(=O)[C@H]1CCN(C(=O)C#CC(C)(C)N3CCC3)C1)C(=O)N1CCC[C@H](N1)C(=O)OCC(C)(C)C2 [Compound A423]		IC50 [3]: 0.01 to 0.1 µM
	C=CC(=O)N1CC[C@H](C(=O)N(C)[C@H](C(=O)N[C@H]2CC3=NN=C(O3)c3ccc4c(c3)c(c(-c3cccnc3[C@H](C)OCC)n4CC(F)(F)F)CC(C)(C)COC(=O)[C@@H]3CCCN(N3)C2=O)C(C)C)C1 [Compound A424]		IC50 [3]: 0.1 to 1 µM
	C=CC(=O)N1CCN(C(=O)N(C)[C@H](C(=O)N[C@H]2Cc3nc(cs3)-c3ccc4c(c3)c(c(-c3cccnc3[C@H](C)OC)n4CC(F)(F)F)CC(C)(C)COC(=O)[C@@H]3CCCN(N3)C2=O)C(C)C)CC1 [Compound A464]	< 0.01 µM	
